For data set [1], the system named is bronchial epithelial cell line 16HBE. Further details: method as in PMID 26150841. Particulars: ref [30]; cited from earlier work.
A short description of data set [2]: Pharmacokinetic studies in mice (intravenous and intramuscular, plasma, HPLC-MS/MS). The format is in vivo, BALB/c mice. More on the design: AUClast / AUCall / AUCINF_obs / AUCINF_pred / AUCINFobs: concentration or dose not given beside the values. Particulars: for F / Ka / Kel / T1/2ka / T1/2kel / Tmax / Cmax / AUC0-∞ / Cl / Vd / C0: mice; for AUCINFobs / AUClast / AUClast/AUCINFobs ratio / AUC0-t/AUC0-∞ ratio (AV): non-compartment model; for AUCINFobs / AUClast / AUClast/AUCINFobs ratio: individual mice; for AUC0-t/AUC0-∞ ratio (AV): mean. As to the method:
Pharmacokinetic experimental procedures of compound 16C were measured according to previous reports with some modifications ([Wang et al., 2022]). In brief, BALB/c mice were divided into two groups of eight mice each; one group was injected intravenously and the other was injected intramuscularly with compound 16C at a dose of 10 mg/kg. The dose was based on previous studies of novel pleuromutilin derivatives ([Jin et al., 2019]; [Wang et al., 2022]). Meanwhile, the dose of tiamulin approved by the European Union for intramuscular administration is 10–20 mg/kg ([EMA, 1999]). The volume of the injection was 0.1 mL/10 g. The compound 16C formulation was a filtered solution in 5% DMSO, 5% Tween-80, and 90% normal saline. Blood was obtained from eight mice via the ocular venous plexus at 0.083, 0.167, 0.25, 0.334, 0.5, 0.75, 1, 1.5, 2, 3, 4, 6, 8, and 12 h following tail intravenous or thigh Intramuscular injection. A glass capillary with a diameter of 0.3 mm was inserted into the outer canthus of the mouse, and 200 μL blood was collected using a 1.5 mL anticoagulant centrifuge tube. The blood was centrifuged at 3,000 rpm for 10 min to obtain plasma. 100 μL of plasma was aspirated for drug concentration detection, and eight parallel samples from different mice were obtained at each time point.
All pharmacokinetic experimental samples and method validation samples were added with 4 times the volume of acetonitrile and shaken for 1 min, centrifuged at high speed at 13,000× g for 10 min, and the supernatants were taken and filtered to detect the drug concentration. Some samples with high concentrations were diluted to the linear range prior to analysis.
The extracted samples were analyzed using a high-performance liquid chromatography-tandem mass spectrometry (HPLC-MS/MS) system (Agilent, Santa Clara, CA, United States) 1200 HPLC and Applied Biosystems (Waltham, MA, United States) API 4000 mass spectrometer). HPLC-MS/MS analysis using a Zorbax Eclipse XDB-C18 (4.6 × 50 mm, 3.5 μm) column (Agilent). The mobile phase A (acetonitrile) and B (water) were applied as a gradient as follows: 0–3 min: 15%–95% A and maintain from 3 min to 5 min at 95% A. 5–5.1 min: 95%–15% A and maintain from 5.1 to 10 min at 15% A. Flow rate: 500 μL/min; column temperature: 30°C and injection volume: 4 μL. The electrospray ionization (ESI) source of the mass spectrometer was operated in […], with the following ion source parameters: ion spray voltage 4,500 V, collision gas 7 psi, ion source gas 1 55 psi, ion source gas 2 40 psi, curtain gas 20 psi, source temperature 600°C. The precursor ion m/z of Compound 16C was 633.3, and the product ions m/z were 272.0 (quantifier) 286.9 and 313.0. Declustering potentials (DP) were 140, 140, and 144 V, respectively; entrance potential (EP) was 10 V; collision energy (CE) was 55, 46, and 15 V, respectively; and collision cell exit potential (CXP) was 14 V.
[…] Pharmacokinetic parameters include time to maximum concentration (Tmax), maximum concentration (Cmax), the area under the plasma concentration–time curve (AUC0-∞), clearance rate (CL), the apparent volume of distribution (Vd), bioavailability (F), elimination half-life (T1/2kel) and absorption half-life (T1/2ka).

The test system of data set [3] is A549. Further details: method as in PMID 26150841. Particulars: A549, 8 μg/mL, compared with the control drugs; ref [30]; cited from earlier work.
Details of data set [4]: method as in Shang et al., 2018; Xianhui, 2010. Particulars: piglets, IM; ref Shang et al., 2018; Xianhui, 2010; cited from earlier work.

The structures appear in SMILES notation. Values joined by “and” are separate entries in the source; they are usually repeats but may differ in a detail not shown here. Equal values may be shown once.

Usually Tmax stands for the time at which the peak concentration occurs. For orientation: Cmax means the peak of the concentration-time curve. For the compound `C=CC1(C)CC(OC(=O)CSc2ccc(NC(=O)Cc3ccc([N+](=O)[O-])cc3)cc2)C2(C)C(C)CCC3(CCC(=O)C32)C(C)C1O` (stereo not shown) [compound 16C, 22–((4-((4-nitrophenyl)acetamido)phenyl)thio)deoxypleuromutilin], in data set [1], the “influence on cell viability” value is listed as “slightly more affected”. In data set [2] (IM 10 mg/kg), this compound returned an F of 71.29 ± 19.34%, a Ka of 14.41 ± 7.76 h⁻¹, a Kel of 0.33 ± 0.07 h⁻¹ and a T1/2ka of 3.6 ± 1.8 min. In addition, in data set [2] (IM 10 mg/kg), the T1/2kel is 2.20 h and 2.20 ± 0.52 h; the Tmax came to 14.4 ± 5.4 min. Also, the Cmax in data set [2] (IM 10 mg/kg, n = 8) is on record as 0.50 ± 0.11 µg/mL. In addition, in data set [2] (IM 10 mg/kg, two-compartmental model), the “AUC0-∞” value was 1.07 ± 0.23 µg·h/mL. In addition, the T1/2ka in data set [2] (IM 10 mg/kg, listed as Compound 16C) was determined as 3.6 min. In data set [2] (IM), the AUCINFobs is 805.258 and 1373.07 and 1092.7 and 1076.67 and 1204.87 and 1450.76 and 1023.1 and 1087.9; the AUClast was 801.322 and 1354.01 and 1070.85 and 1055.33 and 1188.66 and 1432.45 and 925.896 and 1050.1; the AUClast/AUCINFobs ratio is 99.5113% and 98.6117% and 98.0006% and 98.0177% and 98.6551% and 98.7381% and 90.4989% and 96.5252%; the “AUC0-t/AUC0-∞ ratio (AV)” value is 97.32% and 97.3198%. For the same compound, in data set [2] (IV 10 mg/kg), the Cl is recorded as 6.73 ± 1.67 L/h/kg, the Kel is 0.41 ± 0.14 h⁻¹ and the Vd is reported as 3.55 ± 1.32 L/kg. The same compound came in with a C0 in data set [2] (IV 10 mg/kg, n = 8) of 5.58 ± 1.25 µg/mL. Besides, the “AUC0-∞” value in data set [2] (IV 10 mg/kg, two-compartmental model) turned out to be 1.56 ± 0.37 µg·h/mL. Moreover, the T1/2kel in data set [2] (IV 10 mg/kg, 10 mg/kg) was 1.89 h and 1.89 ± 0.61 h. Besides, in data set [2] (IV), the AUCINFobs is 1454.8 and 1871.31 and 1501.72 and 1496.6 and 2594.18 and 1752.1 and 2317.09 and 1731; the AUClast was 1441.26 and 1869.35 and 1488.47 and 1490.96 and 2574.6 and 1734.84 and 2287.49 and 1712.29; the AUClast/AUCINFobs ratio was 99.0694% and 99.8954% and 99.1179% and 99.6229% and 99.2455% and 99.0149% and 98.7227% and 98.9189%; the “AUC0-t/AUC0-∞ ratio (AV)” value is 99.20% and 99.2009%. Also, in data set [2] (IM(10mg/kg), n=8), the “AUC0-∞” value is 1.07 ± 0.23 µg·h/mL, the Cmax stood at 0.50 ± 0.11 µg/mL, the F came out at 71.29±19.34% and the Ka was 14.41 ± 7.76 h⁻¹. In addition, in data set [2] (IM(10mg/kg), n=8), the Kel came to 0.33 ± 0.07 h⁻¹, the T1/2ka was found to be 3.6 ± 1.8 min, the T1/2kel amounted to 2.20 ± 0.52 h and the Tmax stood at 14.4 ± 5.4 min. In addition, in data set [2] (IV(10mg/kg), n=8), the “AUC0-∞” value amounted to 1.56 ± 0.37 µg·h/mL, the C0 worked out at 5.58 ± 1.25 µg/mL, the Cl amounted to 6.73 ± 1.67 L/h/kg and the Kel amounted to 0.41 ± 0.14 h⁻¹. Further, in data set [2] (IV(10mg/kg), n=8), the T1/2kel amounted to 1.89 ± 0.61 h and the Vd came to 3.55 ± 1.32 L/kg. Moreover, the “influence on cell viability” value in data set [3] is “only slight influences on the viability”.
A word on the bioavailability: it is the share of a dose that reaches the circulation, judged against a reference dose that is usually intravenous. Consider `C=C[C@]1(C)C[C@@H](OC(=O)CSCCN(CC)CC)[C@]2(C)[C@H](C)CC[C@]3(CCC(=O)[C@H]32)[C@@H](C)[C@@H]1O` [tiamulin, Tiamulin, reference compound], for which the bioavailability in data set [4] is 73.51% and 75.73%.

The values are drawn from PMC11695783 (Frontiers in Pharmacology, 2024).
